# According to ChEMBL document CHEMBL4814047, “Design, synthesis and biological activity of N-(amino)piperazine-containing benzothiazinones against Mycobacterium tuberculosis” (Eur J Med Chem, 2021):
# Legend:
# [1] = system: Mycobacterium tuberculosis; assay: Antimycobacterial activity against multidrug resistance Mycobacterium tuberculosis 16833 clinical isolate incubated for 7 days by microplate alamar blue assay; assay type: functional; conditions: Mycobacterium tuberculosis, 16833, 168 h; time 7 day
# [2] = system: Mycobacterium tuberculosis; assay: Antimycobacterial activity against multidrug resistance Mycobacterium tuberculosis 16995 clinical isolate incubated for 7 days by microplate alamar blue assay; assay type: functional; conditions: Mycobacterium tuberculosis, 16995, 168 h; time 7 day
# [3] = Selectivity index, ratio of CC50 for African green monkey Vero cells to MIC for multidrug resistance Mycobacterium tuberculosis 16995 clinical isolate; assay type: toxicity; conditions: read-out: Selectivity Index
Structure (SMILES),MIC [1] [µg/mL],MIC [2] [µg/mL],selectivity ratio [3]
O=c1nc(N2CCN(/N=C/c3ccc(OC(F)(F)F)cc3)CC2)sc2c([N+](=O)[O-])cc(C(F)(F)F)cc12,< 0.016,< 0.016,> 4000
CC(NN1CCN(c2nc(=O)c3cc(C(F)(F)F)cc([N+](=O)[O-])c3s2)CC1)c1ccc(OC(F)(F)F)cc1 (configuration not stated),0.0196,0.0177,> 3620
O=c1nc(N2CCN(Nc3ccc(C(F)(F)F)cc3)CC2)sc2c([N+](=O)[O-])cc(C(F)(F)F)cc12,< 0.016,< 0.016,> 4000
O=c1nc(N2CCN(NCc3ccc(Br)cc3)CC2)sc2c([N+](=O)[O-])cc(C(F)(F)F)cc12,< 0.016,< 0.016,> 4000
O=c1nc(N2CCN(NCc3ccc(F)cc3)CC2)sc2c([N+](=O)[O-])cc(C(F)(F)F)cc12,< 0.016,< 0.016,> 4000
COc1ccc(CNN2CCN(c3nc(=O)c4cc(C(F)(F)F)cc([N+](=O)[O-])c4s3)CC2)cc1,< 0.016,0.0271,> 2360
CC(C)CN(CC(C)C)N1CCN(c2nc(=O)c3cc(C(F)(F)F)cc([N+](=O)[O-])c3s2)CC1,< 0.016,< 0.016,> 4000
O=c1nc(N2CCN(NCc3ccc(OC(F)(F)F)cc3)CC2)sc2c([N+](=O)[O-])cc(C(F)(F)F)cc12,< 0.016,< 0.016,> 4000
O=c1nc(N2CCN(Nc3ccc(OC(F)(F)F)cc3)CC2)sc2c([N+](=O)[O-])cc(C(F)(F)F)cc12,< 0.016,< 0.016,> 4000
O=c1nc(N2CCN(NCc3ccc(Cl)cc3)CC2)sc2c([N+](=O)[O-])cc(C(F)(F)F)cc12,< 0.016,< 0.016,> 4000
Cc1cccc(F)c1CNN1CCN(c2nc(=O)c3cc(C(F)(F)F)cc([N+](=O)[O-])c3s2)CC1,0.0152,0.0163,> 3930
CN(c1ccc(OC(F)(F)F)cc1)N1CCN(c2nc(=O)c3cc(C(F)(F)F)cc([N+](=O)[O-])c3s2)CC1,< 0.016,< 0.016,> 4000
O=c1nc(N2CCN(NC3CCCCC3)CC2)sc2c([N+](=O)[O-])cc(C(F)(F)F)cc12,< 0.016,< 0.016,> 4000
CON=C1CCC(N(C)N2CCN(c3nc(=O)c4cc(C(F)(F)F)cc([N+](=O)[O-])c4s3)CC2)CC1 (configuration not stated),< 0.016,< 0.016,> 4000
Cc1ccc(CNN2CCN(c3nc(=O)c4cc(C(F)(F)F)cc([N+](=O)[O-])c4s3)CC2)cc1,< 0.016,< 0.016,> 4000
CN(CC1CCCCC1)N1CCN(c2nc(=O)c3cc(C(F)(F)F)cc([N+](=O)[O-])c3s2)CC1,< 0.016,< 0.016,> 4000
O=c1nc(N2CCN(NCC3CCCC3)CC2)sc2c([N+](=O)[O-])cc(C(F)(F)F)cc12,< 0.016,< 0.016,> 4000
O=c1nc(N2CCN(NCc3cccc(C(F)(F)F)c3)CC2)sc2c([N+](=O)[O-])cc(C(F)(F)F)cc12,< 0.016,< 0.016,> 4000
CC(c1ccc(OC(F)(F)F)cc1)N(C)N1CCN(c2nc(=O)c3cc(C(F)(F)F)cc([N+](=O)[O-])c3s2)CC1 (configuration not stated),< 0.016,< 0.016,> 4000
O=c1nc(N2CCN(NCC3CCCCC3)CC2)sc2c([N+](=O)[O-])cc(C(F)(F)F)cc12,< 0.016,< 0.016,> 1830
C/C(=N\N1CCN(c2nc(=O)c3cc(C(F)(F)F)cc([N+](=O)[O-])c3s2)CC1)c1ccc(OC(F)(F)F)cc1,< 0.016,< 0.016,> 4000
O=c1nc(N2CCN(NCc3ccc(C(F)(F)F)cc3)CC2)sc2c([N+](=O)[O-])cc(C(F)(F)F)cc12,< 0.016,< 0.016,> 4000
O=c1nc(N2CCN(NCc3cc(F)cc(F)c3)CC2)sc2c([N+](=O)[O-])cc(C(F)(F)F)cc12,< 0.016,< 0.016,> 4000
O=c1nc(N2CCN(NCCC3CCCCC3)CC2)sc2c([N+](=O)[O-])cc(C(F)(F)F)cc12,0.0357,0.0294,> 2180
CC(C)(C)c1ccc(CNN2CCN(c3nc(=O)c4cc(C(F)(F)F)cc([N+](=O)[O-])c4s3)CC2)cc1,< 0.016,< 0.016,> 4000
NNC(=O)c1ccncc1 [ISONIAZID],> 10,> 10,–
O=c1nc(N2CCN(CC3CCCCC3)CC2)sc2c([N+](=O)[O-])cc(C(F)(F)F)cc12 [MACOZINONE],< 0.016,< 0.016,> 4000
CO[C@H]1/C=C/O[C@@]2(C)Oc3c(C)c(O)c4c(O)c(c(/C=N/N5CCN(C)CC5)c(O)c4c3C2=O)NC(=O)/C(C)=C\C=C\[C@H](C)[C@H](O)[C@@H](C)[C@@H](O)[C@@H](C)[C@H](OC(C)=O)[C@@H]1C [RIFAMPIN],> 10,> 10,–
